# From patent US8263642B2, “Antimicrobial compounds and methods of use thereof” (Vanderbilt University, priority 2008, dated 2012)
# Key:
# [1] = system: hrtAB-driven expression of the xylE reporter gene; assay: XylE reporter assay (hrtAB promoter-xylE), Newman; format: cell-based, Staphylococcus aureus; conditions: for XylE (0.5): level of XylE induction at 0.5 uM of the compound; for XylE (5.0): level of XylE induction at 5.0 uM of the compound; for XylE (50.0): level of XylE induction at 50.0 uM of the compound; for XylE (0.05): level of XylE induction at 0.05 uM of the compound
# Experimental: (§1) With reference to Table 1, “Luminescence” refers to the raw luminescence value obtained in a luminomter. “Control (82.5 nm)” refers to the luminescence value obtained from heme at 82.5 nM as a positive control in the same plate as the experimental. “% lum” is the percentage of luminescence induced by the compound as compared to the heme control in the same plate. […] All of these assays are described in the application. […] “N/T” indicates the test was not performed.
# Compounds that activate HssRS-driven hrtAB expression in the luciferase-based screen can be subjected to two separate counter screens to confirm these compounds as active hits. First, compounds of interest can be tested for their ability to activate expression of hrtAB in the XylE expression assay described hereinbelow. This is an in vitro assay that measures hrtAB-driven expression of the xylE reporter gene. The XylE-based reporter assay utilizes slightly more manipulations than the primary luciferase-based screen. […] It should be appreciated that a shortcoming of this counter screen is that it measures reporter gene expression, which is a similar activity as that measured in the primary assay. To address this shortcoming, compounds that are positive in both XylE- and luciferase-based assays can be subjected to a second counter screen as described hereinbelow.
# S. aureus strains harboring the appropriate reporter construct were inoculated into 500 μl of TSB containing 10 μg/ml chloramphenicol in 1.5 ml tubes. Cultures were grown O/N at 37° C. with shaking. Bacteria were pelleted by centrifugation and spent medium was aspirated. The pellet was washed once with 500 μl of 20 mM potassium phosphate, pH 7.6, and resuspended in 150 μl of 100 mM potassium phosphate buffer, pH 8.0, 10% (v/v) acetone, 25 μg/ml lysostaphin. After 20 minute incubation at 37° C. and 5 minute incubation on ice, samples were centrifuged at 20,000 g for 30 minutes at 4° C. 1-10 μl of supernatant was added to a 96-well plate and 200 μl of 100 mM potassium phosphate, pH 8.0, 0.2 mM pyrocatechol was added to each well. Formation of 2-hydroxymuconic semialdehyde was tracked by measuring the absorbance at 375 nm every minute for 30 minutes on a Varian MP 50 microplate reader. Protein concentration in samples was determined by BCA (Pierce). One unit of specific activity of XylE in a sample is defined as the formation of 1 nmol of 2-hydroxymuconic semialdehyde per minute per milligram of cellular protein at 30° C. (Chien, Y., Manna, A. C., Projan, S. J., and Cheung, A. L. 1999, “SarA, a global regulator of virulence determinants in Staphylococcus aureus, binds to a conserved motif essential for sar-dependent gene regulation. J. Biol. Chem. 274, 37169-37176).
# The hrtAB intergenic region was fused to the xylE structural gene by PCR-SOE. In the first reaction, primer P1B:[…] and P2B:[…] were used to amplify the hrtAB intergenic region from S. aureus strain Newman genomic DNA. In the second PCR reaction primers P3B:[…] and P4B:[…] were used to amplify the xylE structural gene using pALC1639 template DNA (provided by Dr. Ambrose Cheung) and PCR product purified using a Qiagen gel extraction kit. For the PCRSOE reaction, a 1:300 dilution of purified reaction 1 and reaction 2 PCR products was mixed and amplified by PCR using […]. This yielded a construct in which the hrtAB intergenic region is fused to the xylE gene in such a manner that the position of the start codon for xylE corresponds to the position of the start codon for […] in the hrtAB locus. The hrtAB promoter-xylE fusion DNA was then subcloned into pOS1. As a control we also constructed a promoterless xylE vector. The xylE gene was amplified from pACL1639 template DNA using the primers P1C:[…] and P2C:[…] and then cloned into the pOS1 vector.
# [2] = system: HssRS-dependent hrtAB expression; assay: Luminescence-based assay to monitor HssRS-dependent hrtAB expression (phrtABlux reporter), Newman; format: cell-based, Staphylococcus aureus; conditions: Newman; for activation at 0.0825 µM: Staphylococcus aureus, NEWMAN, read-out: % Lumi, luminescence induced by the compound compared to the heme control (82.5 nM) in the same plate; for Luminescence: raw luminescence value obtained in a luminometer
# Experimental: as §1
# A hrtAB-driven expression system was created in the pXen vector system (Xenogen) (Francis, K. P., D. Joh, C. Bellinger-Kawahara, M. J. Hawkinson, T. F. Purchio, and P. R. Contag. 2000. Monitoring bioluminescent Staphylococcus aureus infections in living mice using a novel luxABCDE construct. Infect Immun 68:3594-3600). This vector contains a promoterless luxCDABE operon from Photorabdus luminescens which produces blue green light when expressed. The luxCDABE encodes for a fatty acid reductase (LuxCDE) that produces a long chain fatty aldehyde which, when combined with cellular flavin mononucleotide, is oxidized by a luciferase (LuxAB) to produce light. Therefore, this system is useful in that it bypasses the need for substrate addition and is capable of generating light in the absence of any added reagents. Furthermore, the luminescent signal produced by the combined activities of LuxAB and LuxCDE is of sufficient intensity to be visualized in unmanipulated intact bacteria.
# To establish an assay that measures HssRS-dependent expression of luxCDABE, the promoter for hrtAB upstream of luxCDABE was cloned and transformed this vector (phrtABlux) into wildtype and ΔhssR S. aureus. A promoterless vector (plux) and a plasmid containing luxCDABE under the control of a constitutive promoter (psrtAlux) (Mazmanian, S. K., G. Liu, H. Ton-That, and O. Schneewind. 1999. “Staphylococcus aureus sortase, an enzyme that anchors surface proteins to the cell wall.” Science 285:760-763) were included as negative and positive controls, respectively. Initially, wildtype S. aureus harboring either plux, phrtABlux, or psrtAlux were plated on solid medium that either lacked heme or contained 4 μM heme. Only wildtype S. aureus containing psrtAlux produced light on solid media regardless of the presence or absence of heme. […] Light was not produced by bacteria containing plux in either condition.
# To adapt this system for a HTS to measure ligand recognition by HssRS, luminescence of wildtype and ΔhssR harboring the above listed plasmids in liquid media with or without heme was measured. […] Taken together, these experiments establish a whole cell […] assay that can identify small molecule modifiers of HssRS. This screen, in some aspects, can identify molecules that can be used as molecular probes in structure-function analyses to determine the mechanism by which S. aureus sense host heme.
# Upon staphylococcal exposure to heme, HssRS senses heme and activates expression of hrtAB. This process can be measured using a reporter assay that employs a vector encoding the light-producing luxCDABE operon under the control of the hrtAB promoter. This assay results in whole cell luminescence upon HssRS-dependent activation of hrtAB, forming the foundation for the development of an assay suitable for high-throughput screens for small molecule activators of HssRS.
# To develop an automated HTS format, S. aureus wildtype and ΔhssR harboring reporter constructs (psrtAlux, phrtAlux, plux) can be grown for 15 hours at 37° C. in tryptic soy broth (TSB) containing 10 μg/ml chloramphenicol. The addition of chloramphenicol is useful to ensure that the staphylococci propagate the reporter plasmid upon cell division. Following growth, bacterial cultures can be normalized and 2×10^7 cells (approximately 2 μl) can be added to individual wells of black walled, clear bottomed, 96-well plates. […]
compound,measurement,setting,value
COc1ccc(/C=C/c2nc3ccccc3c(=O)n2-c2cccc(C(=O)O)c2)cc1,XylE (0.5),[1],0.04
same,XylE (5.0),[1],0.08
same,XylE (50.0),[1],0.05
same,activation at 0.0825 µM,[2],705%
same,Luminescence,[2],1995
COc1ccc(CN2CCCN(C)CC2)c(C)c1C,XylE (0.05),[1],0
same,XylE (0.5),[1],0
same,XylE (5.0),[1],1
same,XylE (50.0),[1],1
same,activation at 0.0825 µM,[2],127%
same,Luminescence,[2],534
Cc1ccc(-c2nc(Nc3ccc4c(c3)OCO4)c3ccccc3n2)cc1,XylE (0.5),[1],0.04
same,XylE (5.0),[1],0
same,XylE (50.0),[1],0
same,Luminescence,[2],2101
Cc1cc(C)c(S(=O)(=O)Nc2ccc(O)c(-c3c(O)ccc4ccccc34)c2)cc1C,XylE (0.5),[1],0.03
same,XylE (5.0),[1],0.06
same,XylE (50.0),[1],0.05
same,activation at 0.0825 µM,[2],354%
same,Luminescence,[2],1574
Cc1cccc(C(=O)Nc2ccc(-c3nc4ccccc4o3)cc2)c1 [drawing 27],XylE (0.05),[1],0.07
same,XylE (0.5),[1],0.09
same,XylE (5.0),[1],0.08
same,XylE (50.0),[1],0.2
same,activation at 0.0825 µM,[2],294%
same,Luminescence,[2],837
NS(=O)(=O)c1ccc(Nc2nc(-c3ccc(Cl)cc3)cs2)cc1,XylE (0.05),[1],0.04
same,XylE (0.5),[1],1
same,XylE (5.0),[1],1
same,XylE (50.0),[1],0.02
same,Luminescence,[2],4946
Oc1ccc(Nc2nc(-c3ccc(Cl)cc3)nc3ccccc23)cc1,XylE (0.05),[1],1
same,XylE (0.5),[1],1
same,XylE (5.0),[1],1
same,XylE (50.0),[1],1
same,Luminescence,[2],3096
O=C(COc1nsnc1N1CCOCC1)Nc1ccccc1,XylE (0.5),[1],0.05
same,XylE (5.0),[1],0.02
same,XylE (50.0),[1],0.03
same,activation at 0.0825 µM,[2],207%
same,Luminescence,[2],1594
c1cc(-c2ccc3nsnc3c2)c2cc3nsnc3cc2c1,XylE (0.5),[1],0.06
same,XylE (5.0),[1],0
same,XylE (50.0),[1],0.9
same,activation at 0.0825 µM,[2],347%
same,Luminescence,[2],1630
C=CCc1ccccc1Oc1ccc(C(F)(F)F)cn1,XylE (0.05),[1],0.08
same,XylE (0.5),[1],0.02
same,XylE (5.0),[1],0.07
same,XylE (50.0),[1],0.09
same,activation at 0.0825 µM,[2],27.5%
same,Luminescence,[2],1474
O=C(Nc1ccc(NC(=O)c2ccccc2)c(Cl)c1)c1ccccc1,XylE (0.05),[1],0.06
same,XylE (0.5),[1],0.05
same,XylE (5.0),[1],0.07
same,XylE (50.0),[1],0.02
same,activation at 0.0825 µM,[2],102%
same,Luminescence,[2],291
O=C(Nc1ccncc1)c1ccc(COc2ccccc2Cl)cc1,XylE (0.5),[1],0.09
same,XylE (5.0),[1],0
same,XylE (50.0),[1],1
same,activation at 0.0825 µM,[2],478%
same,Luminescence,[2],1589
O=C(/C=C/c1ccc([N+](=O)[O-])s1)Nc1ccc(I)cc1,XylE (0.05),[1],0.09
same,XylE (0.5),[1],4
same,XylE (5.0),[1],5
same,XylE (50.0),[1],6
same,activation at 0.0825 µM,[2],107%
same,Luminescence,[2],678
CCc1ccc2oc(-c3ccc(NC(=O)c4ccccc4OC)cc3)nc2c1,XylE (0.5),[1],0.05
same,XylE (5.0),[1],2
same,XylE (50.0),[1],3
same,Luminescence,[2],2392
COc1cc(/C=C/c2ccc3cccc(O)c3n2)c(Cl)cc1O,XylE (0.5),[1],1
same,XylE (5.0),[1],0.5
same,XylE (50.0),[1],0
same,activation at 0.0825 µM,[2],533%
same,Luminescence,[2],1722
C/C(=N/NC(=O)c1cccc(I)c1)c1ccccc1O,XylE (0.05),[1],1
same,XylE (0.5),[1],0.03
same,XylE (5.0),[1],0.04
same,XylE (50.0),[1],0.3
same,Luminescence,[2],5542
Cc1cccc(C(=O)N2N=C(c3cccc(Br)c3)CC2(C)C(F)(F)F)c1 (stereo not shown),XylE (0.5),[1],0.04
same,XylE (5.0),[1],0.08
same,XylE (50.0),[1],0.1
same,activation at 0.0825 µM,[2],572%
same,Luminescence,[2],1683
CCc1ccccc1NC(=O)C1CCCCC1C(=O)O (stereo not shown),XylE (0.05),[1],1
same,XylE (0.5),[1],0.05
same,XylE (5.0),[1],0.02
same,XylE (50.0),[1],1
same,activation at 0.0825 µM,[2],136%
same,Luminescence,[2],576
CCOC(=O)c1c(C)[nH]c2c1-c1cc(Br)ccc1C(=O)C2=O,XylE (0.05),[1],1
same,XylE (0.5),[1],1
same,XylE (5.0),[1],0.09
same,XylE (50.0),[1],0.3
same,activation at 0.0825 µM,[2],240%
same,Luminescence,[2],2896
COc1ccc(OC(=O)c2ccc(N3C(=O)C4C5CCC(C5)C4C3=O)cc2)cc1 (stereo not shown),XylE (0.5),[1],0.09
same,XylE (5.0),[1],0.03
same,XylE (50.0),[1],0.02
same,Luminescence,[2],3096
Cc1cc(O)c(NC(=S)NC(=O)c2ccc(C(C)(C)C)cc2)cc1C,XylE (0.05),[1],0.09
same,XylE (0.5),[1],0.2
same,XylE (5.0),[1],0.2
same,XylE (50.0),[1],0.3
same,activation at 0.0825 µM,[2],127%
same,Luminescence,[2],808
O=C1C2=C(Nc3nn(-c4ccccc4)c(O)c3C2c2ccc([N+](=O)[O-])cc2)c2ccccc21 (stereo not shown),XylE (0.05),[1],0.4
same,XylE (0.5),[1],1
same,XylE (5.0),[1],0.3
same,XylE (50.0),[1],1
same,Luminescence,[2],2608
O=c1oc2ccccc2c(O)c1C(c1ccc([N+](=O)[O-])o1)c1c(O)c2ccccc2oc1=O,XylE (0.5),[1],0.02
same,XylE (5.0),[1],0.07
same,XylE (50.0),[1],0
same,activation at 0.0825 µM,[2],559%
same,Luminescence,[2],1939
COc1ccccc1-c1csc(NC(=O)c2ccc(-c3ccccc3)cc2)n1,XylE (0.5),[1],0.05
same,XylE (5.0),[1],1
same,XylE (50.0),[1],1
same,Luminescence,[2],1704
